The assay deals with CD2F1 mice, L1210 leukemia ip, survival T/C. Put plainly: NCI In Vivo Anticancer Drug Screen. Data for tumor model L1210 Leukemia (intraperitoneal) in CD2F1 (CDF1) mice. To be noted: higher = longer survival. The procedure, abridged:
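Each value reflects a quotient of treated over vehicle control outcomes in mice with a transplanted tumor.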

The mark [1] stands for this setting: endpoint: mean survival time, dose: 25.0 mg/kg/injection, schedule: Q04DX003 (ip), vehicle: saline with Tween-80.
The mark [2] stands for this setting: endpoint: mean survival time, dose: 100.0 mg/kg/injection, schedule: Q01DX009 (ip), vehicle: saline with Tween-80.
[3] abbreviates: endpoint: mean survival time, dose: 200.0 mg/kg/injection, schedule: Q01DX009 (ip), vehicle: saline with Tween-80.
Where [4] appears, read: endpoint: mean survival time, dose: 400.0 mg/kg/injection, schedule: Q01DX009 (ip), vehicle: saline with Tween-80.
The mark [5] stands for this setting: endpoint: mean survival time, dose: 5.0 mg/kg/injection, schedule: Q01DX009 (ip), vehicle: saline with Tween-80.
Setting [6] is: endpoint: mean survival time, dose: 10.0 mg/kg/injection, schedule: Q01DX009 (ip), vehicle: saline with Tween-80.
Setting [7] is: endpoint: mean survival time, dose: 50.0 mg/kg/injection, schedule: Q01DX009 (ip), vehicle: saline with Tween-80.
The mark [8] stands for this setting: endpoint: mean survival time, dose: 50.0 mg/kg/injection, schedule: Q04DX003 (ip), vehicle: saline with Tween-80.
Where [9] appears, read: endpoint: mean survival time, dose: 100.0 mg/kg/injection, schedule: Q01DX001 (ip), vehicle: saline with Tween-80.
[10] abbreviates: endpoint: mean survival time, dose: 100.0 mg/kg/injection, schedule: Q04DX003 (ip), vehicle: saline with Tween-80.
Where [11] appears, read: endpoint: mean survival time, dose: 200.0 mg/kg/injection, schedule: Q01DX001 (ip), vehicle: saline with Tween-80.
Setting [12] is: endpoint: mean survival time, dose: 200.0 mg/kg/injection, schedule: Q04DX003 (ip), vehicle: saline with Tween-80.
Setting [13] is: endpoint: mean survival time, dose: 400.0 mg/kg/injection, schedule: Q04DX003 (ip), vehicle: saline with Tween-80.
[14] abbreviates: endpoint: mean survival time, dose: 12.5 mg/kg/injection, schedule: Q01DX009 (ip), vehicle: saline with Tween-80.
Setting [15] is: endpoint: mean survival time, dose: 25.0 mg/kg/injection, schedule: Q01DX009 (ip), vehicle: saline with Tween-80.
The mark [16] stands for this setting: endpoint: mean survival time, dose: 400.0 mg/kg/injection, schedule: Q01DX001 (ip), vehicle: saline with Tween-80.

Data on 22 compounds can be found in PubChem BioAssay AID256 (DTP/NCI, 2004).

SMILES strings stand for the structures. Several values for one entry are separate records, joined by “and”; a condition that tells them apart may be missing. Identical values can stand only once. Inconclusive results and toxic doses are left out.

In the case of `CNCc1ccc2c(c1)OCO2`, the T/C is, setting by setting: (endpoint: mean survival time, dose: 75.0 mg/kg/injection, schedule: Q01DX001 (ip), vehicle: saline) 100 % of control; (endpoint: mean survival time, dose: 150.0 mg/kg/injection, schedule: Q01DX001 (ip), vehicle: saline) 103 % of control.
`OC(c1ccccc1)c1cc(-c2ccccc2)c(-c2ccccc2)cc1C(O)c1ccccc1` (configuration not stated): the T/C was 102 % of control (endpoint: mean survival time, dose: 12.5 mg/kg/injection, schedule: Q04DX003 (ip), vehicle: saline with Tween-80) and 114 % of control under setting [1].
Regarding `C=CCON(C)c1ccccc1`, the T/C reads like this: under setting [2], 94 % of control; under setting [3], 90 % of control; under setting [4], 99 % of control.
As to `O=C1[O][Hg][c]2cccc3cccc1c23`, the T/C runs as follows: (endpoint: mean survival time, dose: 2.5 mg/kg/injection, schedule: Q01DX009 (ip), vehicle: saline with Tween-80) 88 % of control; under setting [5], 94 % of control; under setting [6], 95 % of control.
With `CC1(C)N=C(N)N=C(N)N1c1ccc(OCc2ccc(C(=O)Nc3cccc(S(=O)(=O)F)c3)cc2)c(Cl)c1`, the T/C (endpoint: mean survival time, dose: 200.0 mg/kg/injection, schedule: Q04DX003 (ip), vehicle: saline) was 104 % of control.
Consider `Cc1ccc(S(=O)(=O)OC(C#N)c2ccccc2)cc1` (configuration not stated), for which the T/C was 100 % of control under setting [7]; 102 % of control under setting [8]; 98 % of control under setting [9]; 101 % of control under setting [2]; 101 % of control under setting [10]; 105 % of control under setting [11]. In addition, the T/C under setting [12] was 107 % of control.
Consider `COc1ccc(C(O)(c2ccc(OC)cc2)C(c2ccccc2)c2ccccc2)cc1`, for which the T/C under setting [2] is 100 % of control, the T/C under setting [3] was 96 % of control and the T/C under setting [4] is 97 % of control.
For the compound `CCOc1cc([N+](=O)[O-])c(OCC)cc1Cl`, the T/C is 90 % of control under setting [2]; 92 % of control under setting [10]; 96 % of control under setting [3]; 89 % of control under setting [12]; 98 % of control under setting [4]; 93 % of control under setting [13].
As to `Cc1ccc(S(=O)(=O)NC(CSCc2ccccc2)C(=O)O)cc1` (configuration not stated), the T/C is, setting by setting: under setting [10], 94 % of control; under setting [12], 93 % of control; under setting [13], 95 % of control.
On to `Nc1nc(N)c2c(n1)NCN(Cc1ccc(Cl)cc1Cl)C2`, for which the T/C (endpoint: mean survival time, dose: 0.75 mg/kg/injection, schedule: Q01DX009 (ip), vehicle: water) is 105 % of control; the T/C (endpoint: mean survival time, dose: 1.5 mg/kg/injection, schedule: Q01DX009 (ip), vehicle: water) was 94 % of control; the T/C (endpoint: mean survival time, dose: 3.0 mg/kg/injection, schedule: Q01DX009 (ip), vehicle: water) is 100 % of control; the T/C (endpoint: mean survival time, dose: 6.0 mg/kg/injection, schedule: Q01DX009 (ip), vehicle: water) is 100 % of control; the T/C (endpoint: mean survival time, dose: 12.0 mg/kg/injection, schedule: Q01DX009 (ip), vehicle: water) is 96 % of control; the T/C (endpoint: mean survival time, dose: 24.0 mg/kg/injection, schedule: Q01DX009 (ip), vehicle: water) is 100 % of control. The T/C was 96 % of control (endpoint: mean survival time, dose: 37.5 mg/kg/injection, schedule: Q01DX009 (ip), vehicle: water) and 91 % of control (endpoint: mean survival time, dose: 75.0 mg/kg/injection, schedule: Q01DX009 (ip), vehicle: water).
On to `O=S(=O)(Cc1ccc(Cl)cc1Cl)Cc1ccc(Cl)cc1Cl`, for which the T/C is 98 % of control (endpoint: mean survival time, dose: 100.0 mg/kg/injection, schedule: Q01DX009 (ip), vehicle: Klucel (hydroxypropylcellulose) (HPC)); 91 % of control (endpoint: mean survival time, dose: 200.0 mg/kg/injection, schedule: Q01DX009 (ip), vehicle: Klucel (hydroxypropylcellulose) (HPC)); 92 % of control (endpoint: mean survival time, dose: 400.0 mg/kg/injection, schedule: Q01DX009 (ip), vehicle: Klucel (hydroxypropylcellulose) (HPC)).
With `Cc1c(NC(=O)Nc2ccc(C3=NCCCN3)cc2)cccc1NC(=O)Nc1ccc(C2=NCCCN2)cc1`, the T/C was 162 % of control (endpoint: mean survival time, dose: 125.0 mg/kg/injection, schedule: Q01DX Z (ip), vehicle: water); 177 % of control (endpoint: mean survival time, dose: 250.0 mg/kg/injection, schedule: Q01DX Z (ip), vehicle: water); 224 % of control (endpoint: mean survival time, dose: 500.0 mg/kg/injection, schedule: Q01DX Z (ip), vehicle: water).
As for `O=c1cc(NCCCCCc2ccccc2)[nH]c(=O)[nH]1`, the T/C was 96 % of control (endpoint: mean survival time, dose: 37.5 mg/kg/injection, schedule: Q01DX001 (ip), vehicle: saline with Tween-80); 100 % of control (endpoint: mean survival time, dose: 75.0 mg/kg/injection, schedule: Q01DX001 (ip), vehicle: saline with Tween-80); 96 % of control (endpoint: mean survival time, dose: 150.0 mg/kg/injection, schedule: Q01DX001 (ip), vehicle: saline with Tween-80).
Consider `CC#CC(=O)SCCNC(=O)CC`, for which the T/C runs as follows: under setting [14], 101 % of control; under setting [15], 101 % of control; under setting [1], 112 % of control; under setting [7], 101 % of control; under setting [8], 106 % of control; under setting [10], 86 % of control.
`OC12CCCCC1(O)CCCC2` (configuration not stated): the T/C runs as follows: under setting [9], 100 % of control; under setting [2], 102 % of control; under setting [11], 97 % of control; under setting [3], 102 % of control; under setting [16], 97 % of control; under setting [4], 102 % of control.
As to `O=C1CSC(=S)N1`, the T/C reads like this: under setting [2], 89 % of control; under setting [10], 105 % of control; under setting [3], 97 % of control; under setting [12], 92 % of control; under setting [13], 94 % of control.
As for `CC(=O)Nc1ccc(/C=N/NC(=O)CNC(=O)Nc2cccc([N+](=O)[O-])c2)cc1`, the T/C was 87 % of control under setting [14], 91 % of control under setting [15], 91 % of control under setting [7] and 88 % of control under setting [2].
Consider `O=C(C(=C(c1ccccc1)c1ccccc1)c1ccccc1)c1ccccc1`, for which the T/C was 93 % of control (endpoint: mean survival time, dose: 100.0 mg/kg/injection, schedule: Q04DX002 (ip), vehicle: saline with Tween-80); 96 % of control (endpoint: mean survival time, dose: 200.0 mg/kg/injection, schedule: Q04DX002 (ip), vehicle: saline with Tween-80); 93 % of control (endpoint: mean survival time, dose: 400.0 mg/kg/injection, schedule: Q04DX002 (ip), vehicle: saline with Tween-80).
Regarding `O=S(=O)(N/N=C/c1ccncc1)c1ccccc1`, the T/C is, setting by setting: (endpoint: mean survival time, dose: 12.5 mg/kg/injection, schedule: Q04DX003 (ip), vehicle: water) 98 % of control; (endpoint: mean survival time, dose: 25.0 mg/kg/injection, schedule: Q04DX003 (ip), vehicle: water) 98 % of control; (endpoint: mean survival time, dose: 50.0 mg/kg/injection, schedule: Q04DX003 (ip), vehicle: water) 104 % of control; (endpoint: mean survival time, dose: 100.0 mg/kg/injection, schedule: Q04DX003 (ip), vehicle: water) 106 % of control; (endpoint: mean survival time, dose: 200.0 mg/kg/injection, schedule: Q04DX003 (ip), vehicle: water) 112 % of control; (endpoint: mean survival time, dose: 400.0 mg/kg/injection, schedule: Q04DX003 (ip), vehicle: water) 108 % of control.
As for `O=C(O)CC(=O)O.OC(CN=Cc1ccccc1)CN=Cc1ccccc1.[Pt]` (configuration not stated), the T/C is 103 % of control (endpoint: median survival time, dose: 10.0 mg/kg/injection, schedule: Q04DX003 (ip), vehicle: distilled water + Tween-80); 104 % of control (endpoint: median survival time, dose: 20.0 mg/kg/injection, schedule: Q04DX003 (ip), vehicle: distilled water + Tween-80); 102 % of control (endpoint: median survival time, dose: 40.0 mg/kg/injection, schedule: Q04DX003 (ip), vehicle: distilled water + Tween-80); 116 % of control and 105 % of control (endpoint: median survival time, dose: 80.0 mg/kg/injection, schedule: Q04DX003 (ip), vehicle: distilled water + Tween-80); 108 % of control (endpoint: median survival time, dose: 160.0 mg/kg/injection, schedule: Q04DX003 (ip), vehicle: distilled water + Tween-80); 109 % of control (endpoint: median survival time, dose: 320.0 mg/kg/injection, schedule: Q04DX003 (ip), vehicle: distilled water + Tween-80).
Regarding `Cc1ccc(C)c(NC(=O)Oc2ccc(F)cc2)c1`, the T/C under setting [9] was 96 % of control; the T/C under setting [2] is 94 % of control and 97 % of control; the T/C under setting [11] was 86 % of control; the T/C under setting [3] is 101 % of control; the T/C under setting [16] was 92 % of control; the T/C under setting [4] is 93 % of control and 103 % of control.
Take `CC1NC(=O)OC1(C)C(C)(C)C` (configuration not stated): the T/C was 94 % of control under setting [5]; 104 % of control under setting [6]; 102 % of control (endpoint: mean survival time, dose: 20.0 mg/kg/injection, schedule: Q01DX009 (ip), vehicle: saline with Tween-80).
